{
  "source": "patent US20160216351A1",
  "about": "“METHOD FOR DETECTING OXIDATION/REDUCTION REACTION IN VIVO” (KYUSHU UNIVERSITY, NATIONAL UNIVERSITY CORPORATION, priority 2013, published 2016)",
  "key": {"C57BL6 mice": {"test_system": "C57BL6 mice", "assay": "Metabolic imaging in mice using sequential ReMI", "assay_type": "in vivo", "from_the_text": "Female C57BL6 mice (5 weeks old) were purchased from Japan SLC, Inc. (Hamamatsu, Japan) and acclimated for one week before the experiment. Mice were 6 to 8 weeks old at the time of the experiment (body weight: 20-30 g), and five mice were kept in each cage in a room that was adjusted to a 24-hour cycle rhythm, wherein the temperature and moisture of the room were also adjusted. Food and water were given ad libitum. All the procedures and animal care were approved by the Animal Experiment Ethics Committee of Kyushu University and carried out in accordance with guidelines for animal experiments established by Kyushu University.\nMice were anesthetized with 2% isoflurane in the FADH experiment or with urethane (2 g/kg) in the CoQ0H experiment and immobilized with a skin adhesive tape, wherein the stomach was placed to the lower side. During the experiment, the temperature of mice was kept at 37+/−1° C. with a warm current of air. Subsequently, mice were placed in a resonator and ReMI measurement was started. ReMI images of the lower abdominal region were examined after administering an 8 mM CoQ0 alkaline solution (800 μL) to the rectum or administering an FAD/NADH solution intramuscularly.\nReMI images were obtained by using a DNP-MRI system manufactured at Kyushu University in an experiment using FADH and a Philips prototype system in an experiment using CoQ0. The ReMI experiment was conducted using the abovementioned parameters. Radical metabolic images (redox maps) were obtained by calculating changes in ReMI intensity in each pixel among the first four ReMI images (from a semi-logarithmic plot line of each pixel on sequential images)."}, "[1]": {"test_system": "mitochondria collected from a rat", "assay": "ReMI metabolic imaging in the presence of mitochondria (phantom tubes)", "assay_type": "in vitro ADME", "details": "mitochondria fractions of various concentrations", "experimental": "The ReMI experiment was conducted by using a DNP-MRI system manufactured at Kyushu University. The DNP-MRI system was constituted by using an external magnet for an EPR device (JES-ES20, JEOL Ltd.) and two axis field gradient coils for CW-EPR imaging. A resonator was constituted of a surface coil for ESR irradiation, an NMR cross coil within a saddle, and a solenoid for transmission and signal reception. An ESR irradiation coil was disposed between two NMR coils. […] A surface coil (diameter: 20 mm) was used for ESR irradiation, and an NMR coil assembly was constituted of an NMR transmission saddle coil (90 mm i.d., 175 mm in length) and a solenoid reception coil (40 mm i.d., 60 mm in length) having a bandwidth of 1 kHz. The maximum transmission power was 100 W. The ReMI experiment was conducted by a spin echo method. The ReMI experiment was conducted under the following conditions: EPR irradiation power, 12 W; flip angle, 90 degrees; TEPR×repetition time (TR)×echo time (TE)=500×1000×40 ms; average number=1; slice thickness, 30 mm; and a 64-phase modulation step. For the image field (32×32 mm), 64×64 matrix was used.\nTo a phantom tube filled with mitochondria collected from a rat was added FADH or CoQ0H in an experiment. […] The metabolic rates (decreasing rates) of FADH and CoQ0H were calculated from changes in the first four image intensities after the reaction with mitochondria."}},
  "data": [
    {"substance": "FADH", "values": [
      {"measurement": "distribution in fusion images of MRI and ReMI", "setting": "C57BL6 mice; FADH intramuscular, CoQ0H rectal", "result": "site-specifically distributed in the legs"},
      {"measurement": "pharmacokinetic map (decreasing rate)", "setting": "C57BL6 mice; calculated from first four ReMI images", "result": "constant"},
      {"measurement": "metabolism in the muscle by ReMI scanning", "setting": "C57BL6 mice; intramuscular administration", "result": "metabolized slowly"},
      {"measurement": "ReMI image intensity during the test period", "setting": "C57BL6 mice; intramuscular administration in both legs, imaging every two minutes, 14 minutes", "result": "stable"},
      {"measurement": "redox map (intensity declining speed)", "setting": "[1]; calculated from first four image intensities", "result": "no change"},
      {"measurement": "change in ReMI image intensity over time after reaction with mitochondria", "setting": "[1]; images every two minutes, EPR irradiation 572.5 MHz", "result": "no reaction with mitochondria"}
    ]}
  ]
}
